# Counter-ions that a name gives are not always drawn.
# Columns and labels:
# Assay type in all cases: cell-based
# [1] = tested on: AP1 mediated reporter activity; test: AP1 reporter assay
# [2] = tested on: CREB mediated reporter activity; test: CRE / CREB mediated reporter assay
# CREB TAD = test: CREB-TAD fused to GAL4 DNA-binding domain reporter assay; conditions: Table 3 grade HIGH/MED/LOW, grades not defined
# Description: (§1) The inhibitory activity of JN018 was further evaluated in experiments in which the AR transactivation domain (TAD) or the c-Jun or CREB TAD was fused to the heterologous GAL4 DNA-binding domain and thereby drive reporter gene expression governed by the GAL4 response element (FIG. 1).
# [3] = molecular target: T1, AR transactivation domain (TAD) (Homo sapiens, UniProt P10275); test: AR-TAD fused to GAL4 DNA-binding domain reporter assay
# T1 construct: expressed in transfected cells
# T1 sequence (P10275 1-559 limits assumed): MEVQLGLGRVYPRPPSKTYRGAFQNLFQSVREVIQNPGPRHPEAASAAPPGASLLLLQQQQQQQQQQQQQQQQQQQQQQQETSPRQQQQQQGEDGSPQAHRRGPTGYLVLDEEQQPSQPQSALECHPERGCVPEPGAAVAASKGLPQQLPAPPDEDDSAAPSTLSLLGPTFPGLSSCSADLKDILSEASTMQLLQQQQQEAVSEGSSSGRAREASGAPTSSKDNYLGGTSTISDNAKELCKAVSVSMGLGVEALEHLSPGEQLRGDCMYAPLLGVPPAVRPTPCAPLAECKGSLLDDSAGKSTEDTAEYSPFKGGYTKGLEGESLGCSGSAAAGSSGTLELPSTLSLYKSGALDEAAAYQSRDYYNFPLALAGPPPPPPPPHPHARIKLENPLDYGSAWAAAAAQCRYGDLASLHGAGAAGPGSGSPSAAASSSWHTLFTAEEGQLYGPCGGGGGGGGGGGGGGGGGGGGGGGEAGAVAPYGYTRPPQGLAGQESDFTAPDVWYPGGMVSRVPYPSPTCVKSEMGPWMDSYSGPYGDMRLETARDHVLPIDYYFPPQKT
# Description: as §1
# [4] = Table 3 grade HIGH/MED/LOW, grades not defined
smiles,measurement,setting,value
"C=C(CN(C)Cc1ccccc1)C(=O)/C(=C/c1ccc(Cl)cc1)c1ccccc1 [JN018, (E)-4-((Benzyl(methyl)amino)methyl)-1-(4-chlorophenyl)-2-phenylpenta-1,4-dien-3-one hydrochloride]",AP1,[1]; [4],LOW
same,AP1 mediated reporter activity,[1]; result in words,does not affect
same,CRE,[2]; [4],LOW
same,CREB mediated reporter activity,[2]; result in words,does not affect
same,CREB-TAD,CREB TAD,LOW
same,AR-TAD,[3]; [4],HIGH
same,inhibition of the AR-GAL4-DBD fusion protein,"[3]; result in words, versus c-Jun or CREB TAD fusions",selectively inhibits
